Assays:
[1] = test system: HMEC-1; assay: PGE2-induced vascular endothelial cell tube formation on Matrigel; assay type: cell-based, human; settings: 20 μM, 24 hours; compared with 100 ng/ml VEGF
Experimental: Human vascular endothelial cells (HMEC-1) were seeded in a Matrigel-coated 24-well plate at a density of 1.2×10^5 cells per well, and each well was pretreated with 10 ppm of isookanin for 2 hours. Next, each well was treated with PGE2 at a concentration of 20 μM and incubated for 24 hours. As a negative control, 100 ng/ml of VEGF was used. After 24 hours of incubation, the degree of vascular cell tube formation was observed using a microscope, and the results were photographed with a microscope camera and analyzed with Image J, and are shown in FIGS. 10 and 11.

[2] = test system: HMEC-1; assay: PGE2-induced vascular endothelial cell migration (scratch assay); assay type: cell-based, human; settings: 20 μM, 24 hours; compared with 100 ng/ml VEGF
Experimental: Human vascular endothelial cells (HMEC-1) were seeded in a 12-well plate at a density of 2×10^5 cells per well and cultured in an incubator for 24 hours at 37° C. under 5% CO2. After the cells in each well were grown to 80% confluency, the central part of each well was scratched using a yellow pipette tip. Next, each well was pretreated with each concentration of isookanin for 2 hours and then treated with 20 μM PGE2 and incubated for 24 hours. As a negative control, 100 ng/ml of VEGF was used. After 24 hours of incubation, the degree of vascular cell migration was observed using a microscope, and the results were photographed with a microscope camera and shown in FIG. 9.

[3] = test system: human skin; assay: Human skin safety, repeated insult patch test (Finn chamber); assay type: in vivo; settings: 30 healthy adults; 10th patch test; dash = no subject
[4] = test system: human skin; assay: as above; assay type: in vivo; settings: 30 healthy adults
Experimental: In order to confirm that the isookanin according to the present invention is safe for human skin, a skin safety verification test was performed. To this end, a repeated insult patch test was conducted.
Nourishing creams containing the isookanin in amounts of 0.1%, 0.5% and 1%, respectively, were prepared. Specifically, a water phase containing purified water, triethanolamine and propylene glycol was dissolved by heating to 70° C. and then emulsified by adding a solution obtained by dissolving beeswax, liquid paraffin, an oil component, an emulsifier and a preservative by heating to 70° C. After completion of emulsification, the solution was cooled to 45° C., and the isookanin was added thereto in amounts of 0.1%, 0.5% and 1% and dispersed therein, followed by cooling to 30° C. As the content of the isookanin was increased from 0.1% to 0.5% and 1%, the content of liquid paraffin was decreased from 9.91% to 9.51% and 9.01%, respectively, thereby preparing nourishing creams.
Using the nourishing creams prepared as described above, a repeated insult patch test was conducted on the upper arm areas of 30 healthy adults every other day for a total of 9 times for 24 hours per time to determine whether the isookanin irritated the skin.
The patch test was performed using a Finn chamber (Epitest Ltd., Finland). 15 μl of each of the external skin preparations was dropped into the chamber, and then the patch test was performed.
[Equation 1] Average degree of reaction=[[(reaction index×degree of reaction)/(total number of subjects×highest score (4)]×100]÷number of tests (9)
In the degree of reaction, ± represents a score of 1, + represents a score of 2, and ++ represents a score of 4. When the average degree of reaction is less than 3, the corresponding composition is determined to be safe.

SMILES	effect on vascular cell tube formation [1]	effect on vascular endothelial cell migration [2]	Number of subjects showing reaction (±, +, ++), 10th [3]	Average degree of reaction ([4]; upper arm, 24 hours per patch, Equation 1, less than 3 is determined to be safe)	Number of subjects showing reaction (±, +, ++), 1st ([4]; 1st patch test, dash = no subject)	Number of subjects showing reaction (±, +, ++), 2nd ([4]; 2nd patch test, dash = no subject)	Number of subjects showing reaction (±, +, ++), 5th ([4]; 5th patch test, dash = no subject)	Number of subjects showing reaction (±, +, ++), 6th ([4]; 6th patch test, dash = no subject)	Number of subjects showing reaction (±, +, ++), 7th ([4]; 7th patch test, dash = no subject)	Number of subjects showing reaction (±, +, ++), 8th ([4]; 8th patch test, dash = no subject)	Number of subjects showing reaction (±, +, ++), column between 3rd and 5th ([4]; dash = no subject)
CCCCC[C@H](O)/C=C/[C@H]1[C@H](O)CC(=O)[C@@H]1C/C=C\CCCC(=O)O [PGE2, reference compound]	promoted vascular cell tube formation, similar to VEGF	promoted vascular endothelial cell migration, similar to VEGF									
CC(C)=CCC/C(C)=C/CC/C(C)=C/CC/C=C(\C)CC/C=C(\C)CCC=C(C)C [squalene]			- - -	0.09	- - -	- - -	- - -	- -	- - -	- - -	- - -

— US12502374B2, “Composition for preventing, alleviating, or treating inflammatory disease containing isookanin or salt thereof as active ingredient” (BioSpectrum, Inc., priority 2020, dated 2025)
